Calls of active or inactive are those of the source. No cut-off for these calls is given here.
Assays:
HeLa [1] = test: Cytotoxicity against human HeLa cells after 72 hrs by MTT assay; format: functional, cell-based
[2] = Cytotoxicity against human ME180 cells after 72 hrs by MTT assay; format: functional, cell-based; conditions: ME-180, 72 h
DU-145 = test: Cytotoxicity against human DU145 cells after 72 hrs by MTT assay; format: functional, cell-based; conditions: DU-145, 72 h
PC-3 = test: Cytotoxicity against human PC3 cells after 72 hrs by MTT assay; format: functional, cell-based; conditions: PC-3, 72 h
COLO 205 = test: Cytotoxicity against human COLO205 cells after 72 hrs by MTT assay; format: functional, cell-based; conditions: COLO 205, 72 h
HT-29 = test: Cytotoxicity against human HT-29 cells after 72 hrs by MTT assay; format: functional, cell-based; conditions: HT-29, 72 h
B16 = test: Cytotoxicity against mouse B16 cells after 72 hrs by MTT assay; format: functional, cell-based; conditions: B16, 72 h
HeLa [3] = test: Induction of apoptosis in human HeLa cells assessed as presence of apoptotic bodies at 1 uM after 48 hrs by Hoechst 33342 staining-based fluorescence microscopic analysis; format: functional, cell-based
HeLa [4] = test: Induction of apoptosis in human HeLa cells assessed as nuclear fragmentation at 1 uM after 48 hrs by Hoechst 33342 staining-based fluorescence microscopic analysis; format: functional, cell-based
HeLa [5] = test: Cell cycle arrest in human HeLa cells assessed as accumulation at sub-G1 phase at 0.5 uM after 24 hrs by propidium iodide staining-based FACS analysis (reference value: 3.07%); format: functional
HeLa [6] = test: Cell cycle arrest in human HeLa cells assessed as accumulation at G1 phase at 0.5 uM after 24 hrs by propidium iodide staining-based FACS analysis (reference value: 71.21%); format: functional
HeLa [7] = test: Cell cycle arrest in human HeLa cells assessed as accumulation at S phase at 0.5 uM after 24 hrs by propidium iodide staining-based FACS analysis (reference value: 4.62%); format: functional
HeLa [8] = test: Cell cycle arrest in human HeLa cells assessed as accumulation at G2/M phase at 0.5 uM after 24 hrs by propidium iodide staining-based FACS analysis (reference value: 21.10%); format: functional
HeLa [9] = test: Induction of apoptosis in human HeLa cells assessed as caspase-3 activation at 2 uM after 48 hrs by Ac-DEVD fluorescence assay relative to control; format: functional
Tubulin (Homo sapiens) [10] = target: T1, Tubulin (Homo sapiens) (UniProt P68371+Q9H4B7+P0DPH7+P68366+Q13509+Q71U36+P04350+Q3ZCM7+P07437+P68363+Q9BQE3+Q6PEY2+Q13885+Q9BVA1+Q9BUF5); test: Inhibition of tubulin polymerization in human HeLa cells assessed as disruption of microtubule organization at 1 uM after 48 hrs by immunohistochemical analysis; format: cell-based
Tubulin (Homo sapiens) [11] = target: T1, Tubulin (Homo sapiens); test: Inhibition of tubulin (unknown origin) polymerization at 5 uM measured for 1 hr by fluorescence assay in presence of GTP relative to control; format: protein-complex assay
Tubulin = test: Inhibition of tubulin (unknown origin) polymerization measured for 1 hr by fluorescence assay in presence of GTP; format: protein-complex assay, Homo sapiens
HeLa [12] = test: Induction of apoptosis in human HeLa cells assessed as DNA fragmentation at 1 to 2 uM after 48 hrs by agarose gel electrophoresis; format: functional, cell-based
HeLa [13] = test: Induction of apoptosis in human HeLa cells assessed as […] condensation at 1 uM after 48 hrs by Hoechst 33342 staining-based fluorescence microscopic analysis; format: functional, cell-based

inhibition (Tubulin (Homo sapiens) [10]) | inhibition (Tubulin (Homo sapiens) [11]) [%] | IC50 (Tubulin) [µM] | Compound | IC50 (HeLa [1]) [µM] | IC50 [2] [µM] | IC50 (DU-145) [µM] | IC50 (PC-3) [µM] | IC50 (COLO 205) [µM] | IC50 (HT-29) [µM] | IC50 (B16) [µM] | Activity (HeLa [3]) | Activity (HeLa [4]) | Activity (HeLa [5]) [%] | Activity (HeLa [6]) [%] | Activity (HeLa [7]) [%] | Activity (HeLa [8]) [%] | fold change (FC) (HeLa [9]) | Activity (HeLa [12]) | Activity (HeLa [13])
 |  |  | COc1cccc(/C=C/C(=O)Nc2cc(OC)c(OC)c(OC)c2)c1 | 12.3 | 17.3 | 3.2 | 2.1 | 4.2 | 2.4 | 8.5 |  |  |  |  |  |  |  |  | 
 |  |  | COc1ccc(C(=O)c2cc(OC)c(OC)c(OC)c2)cc1NC(=O)/C=C/c1cc(OC)c(OC)c(OC)c1 | 1.5 | 2.1 | 6.3 | 3.9 | 5.2 | 3.1 | 1.2 |  |  |  |  |  |  |  |  | 
Active | 60.5 | 0.6 | COc1ccc(C(=O)c2cc(OC)c(OC)c(OC)c2)cc1NC(=O)/C=C/c1ccc(F)cc1 | 0.06 | 0.3 | 3.9 | 3.2 | 3.4 | 1.8 | 0.4 | Active | Active | 2.96 | 53.02 | 7.4 | 36.62 | 5 | Active | Active
 |  |  | COc1ccc(C(=O)c2cc(OC)c(OC)c(OC)c2)cc1NC(=O)/C=C/c1ccc(OC)c(OC)c1 | 7.8 | 8.9 | 10.2 | 7.5 | 8.2 | 2.5 | 6.3 |  |  |  |  |  |  |  |  | 
 |  |  | COc1cc(C(=O)c2cc(OC)c(OC)c(OC)c2)cc(N)c1OC | 13.5 | 12.2 | 10 | 7.4 | 4.4 | 3.8 | 12.5 |  |  |  |  |  |  |  |  | 
 |  |  | COc1cc(/C=C/C(=O)Nc2cc(C(=O)c3cc(OC)c(OC)c(OC)c3)ccc2OC)ccc1F | 13.6 | 15.5 | 12.1 | 14.1 | 11.8 | 7.7 | 16.3 |  |  |  |  |  |  |  |  | 
 |  |  | COc1ccc(/C=C/C(=O)Nc2cc(C(=O)c3cc(OC)c(OC)c(OC)c3)cc(OC)c2OC)cc1N | 15.8 | 13.9 | 12.7 | 11.1 | 10.1 | 7.7 | 12.7 |  |  |  |  |  |  |  |  | 
 |  |  | COc1ccc(C(=O)c2cc(OC)c(OC)c(OC)c2)cc1NC(=O)/C=C/c1ccc([N+](=O)[O-])cc1 | 8.5 | 9.3 | 15.6 | 10.4 | 11.4 | 5.1 | 6.4 |  |  |  |  |  |  |  |  | 
 |  |  | C#CCOc1cccc(/C=C/C(=O)Nc2cc(C(=O)c3cc(OC)c(OC)c(OC)c3)cc(OC)c2OC)c1 | 7.3 | 8.4 | 13.5 | 10.1 | 11.2 | 8.1 | 5.1 |  |  |  |  |  |  |  |  | 
 |  |  | COc1cc(C(=O)c2cc(OC)c(OC)c(OC)c2)cc(NC(=O)/C=C/c2ccc(F)cc2)c1OC | 0.9 | 1 | 6.7 | 4.1 | 3.1 | 1.8 | 0.9 |  |  |  |  |  |  |  |  | 
 |  |  | COc1cccc(/C=C/C(=O)Nc2cc(C(=O)c3cc(OC)c(OC)c(OC)c3)cc(OC)c2OC)c1 | 6.9 | 8.6 | 12.5 | 13.3 | 10.7 | 8.7 | 6.7 |  |  |  |  |  |  |  |  | 
 |  |  | COc1ccc(C(=O)c2cc(OC)c(OC)c(OC)c2)cc1NC(=O)/C=C/c1ccc(N)cc1 | 14.7 | 16 | 13.5 | 15.9 | 10.3 | 5.6 | 7.9 |  |  |  |  |  |  |  |  | 
 |  |  | C#CCOc1cccc(/C=C/C(=O)Nc2cc(C(=O)c3cc(OC)c(OC)c(OC)c3)ccc2OC)c1 | 14 | 15.3 | 15.8 | 13.1 | 13.4 | 7.4 | 12.2 |  |  |  |  |  |  |  |  | 
 |  |  | COc1ccc(C(=O)c2cc(OC)c(OC)c(OC)c2)cc1NC(=O)/C=C/c1ccc(F)c(F)c1 | 8.1 | 8.9 | 10.2 | 8.3 | 6.02 | 4.2 | 6.5 |  |  |  |  |  |  |  |  | 
 |  |  | COc1ccc(/C=C/C(=O)Nc2cc(C(=O)c3cc(OC)c(OC)c(OC)c3)ccc2OC)cc1 | 10.7 | 11.8 | 12.8 | 11.1 | 10.9 | 5.01 | 8.7 |  |  |  |  |  |  |  |  | 
 |  |  | COc1cccc(/C=C/C(=O)Nc2cc(C(=O)c3cc(OC)c(OC)c(OC)c3)ccc2OC)c1 | 3.1 | 4.3 | 6.2 | 4.7 | 5.1 | 1.9 | 3.1 |  |  |  |  |  |  |  |  | 
Active | 59.4 | 0.7 | COc1ccc(C(=O)c2cc(OC)c(OC)c(OC)c2)cc1NC(=O)/C=C/c1ccc(C(F)(F)F)cc1 | 0.09 | 0.8 | 4.3 | 3.5 | 2.6 | 1.6 | 0.1 | Active | Active | 5.66 | 49.59 | 5.92 | 38.82 | 5 | Active | Active
 |  |  | COc1cc(C(=O)c2cc(OC)c(OC)c(OC)c2)cc(NC(=O)/C=C/c2cc(F)c(F)c(F)c2)c1OC | 5 | 7.1 | 7.9 | 7.4 | 4.3 | 3.3 | 5.2 |  |  |  |  |  |  |  |  | 
 |  |  | COc1ccc(C(=O)c2cc(OC)c(OC)c(OC)c2)cc1NC(=O)/C=C/c1cccc(OC(F)(F)F)c1 | 7.9 | 9.2 | 10.2 | 7.7 | 7.9 | 5.2 | 6.3 |  |  |  |  |  |  |  |  | 
Active | 58.3 | 0.6 | COc1ccc(C(=O)c2cc(OC)c(OC)c(OC)c2)cc1N | 0.06 | 0.08 | 2.1 | 1.1 | 0.2 | 0.05 | 0.03 | Active | Active | 4.56 | 53 | 5.07 | 37.36 | 5 |  | Active
 |  |  | COc1ccc(/C=C/C(=O)Nc2cc(C(=O)c3cc(OC)c(OC)c(OC)c3)cc(OC)c2OC)cc1 | 11.2 | 12.5 | 10.4 | 6.3 | 4.8 | 3.8 | 9.4 |  |  |  |  |  |  |  |  | 
 |  |  | COc1cc(C(=O)c2cc(OC)c(OC)c(OC)c2)cc(NC(=O)/C=C/c2ccc(C(F)(F)F)cc2)c1OC | 3 | 3.6 | 5.1 | 4.2 | 2.5 | 1.9 | 3.3 |  |  |  |  |  |  |  |  | 
 |  |  | COc1cc(C(=O)c2cc(OC)c(OC)c(OC)c2)cc(NC(=O)/C=C/c2cc(OC)c(OC)c(OC)c2)c1OC | 2.5 | 3.9 | 6.6 | 4.8 | 5.3 | 3.1 | 2.5 |  |  |  |  |  |  |  |  | 
 |  |  | COc1ccc(/C=C/C(=O)Nc2cc(C(=O)c3cc(OC)c(OC)c(OC)c3)cc(OC)c2OC)cc1OC | 2.7 | 6.7 | 7.8 | 5.4 | 5.7 | 2.3 | 1.3 |  |  |  |  |  |  |  |  | 

Reference: ChEMBL document CHEMBL3259744, “Synthesis and biological evaluation of cinnamido linked benzophenone hybrids as tubulin polymerization inhibitors and apoptosis inducing agents” (Bioorg Med Chem Lett, 2014)
